8 compounds from ChEMBL document CHEMBL1201862, “PubChem BioAssay data set” (2004) can be followed below.

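Each compound was tested at five concentrations against cells in 96-well plates for 48 hours. Here, GI50 denotes the concentration required for 50% inhibition of growth.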 Activity calls are given as the source filed them. Rule as the data show it: active = GI50 up to about 1.1 µM and inactive = higher.

Among the test systems are IGROV-1; PC-3; DU-145; BT-549; UACC-62; HCC 2998; COLO 205; NCI-H226; SNB-19; NCI-H460; SN12C; MCF7; U-251; Malme-3M; HCT-15; MDA-MB-231; SR; OVCAR-5; SK-MEL-5; UACC-257.
Holding throughout (assay): NCI tumour cell line growth inhibition, 48 h

`CC/C=C/C[C@H](O)[C@H]1C[C@H]2O[C@H](CC(=O)OC)C[C@H]2O1`: the GI50 with IGROV-1, in the experiment on PC-3, with DU-145, in the experiment on BT-549, with UACC-62 and in the experiment on HCC 2998 was > 100 µM (inactive) throughout. Moreover, the GI50 with COLO 205, in the experiment with NCI-H226, in the experiment with SNB-19, with NCI-H460, in the experiment with SN12C and with MCF7 was > 100 µM (inactive) each time. The GI50 with U-251 is > 100 µM (inactive); with Malme-3M, > 100 µM (inactive); in the experiment on HCT-15 it was more than 100 µM; in the experiment on MDA-MB-231 it was > 100 µM (inactive); with SR, > 100 µM (inactive); in the experiment on OVCAR-5 it was > 100 µM (inactive). Besides, the GI50 in the experiment on SK-MEL-5 is > 100 µM (inactive).
As for `N#CCCN(CCCCN(CCC#N)C(=O)Nc1ccccc1)C(=O)Nc1ccccc1`, the GI50 with IGROV-1, with PC-3, with DU-145, in the experiment with BT-549, in the experiment on UACC-62 and in the experiment with HCC 2998 was > 100 µM (inactive) throughout. Further, the GI50 in the experiment on COLO 205, in the experiment on NCI-H226, in the experiment on SNB-19, in the experiment with NCI-H460, in the experiment on SN12C and in the experiment with MCF7 was > 100 µM (inactive) each time. For the same compound, the GI50 was > 100 µM (inactive) with U-251; > 100 µM (inactive) in the experiment on Malme-3M; more than 100 µM in the experiment on HCT-15; > 100 µM (inactive) in the experiment on MDA-MB-231; > 100 µM (inactive) in the experiment on SR; > 100 µM (inactive) with OVCAR-5. The GI50 in the experiment on SK-MEL-5 is > 100 µM (inactive).
On to `COC(=O)C1=CO[C@@H](OC2OC(CO)C(O)C(O)C2O)[C@@H]2[C@H](C)[C@@H](O)[C@@H](O)[C@]12O` (stereo not given in full), for which the GI50 with IGROV-1, in the experiment on PC-3, in the experiment on UACC-257, in the experiment with DU-145, with BT-549 and in the experiment on UACC-62 was > 100 µM (inactive) each time. Moreover, the GI50 with HCC 2998, in the experiment on COLO 205, with NCI-H226, with SNB-19, with SN12C and with MCF7 was > 100 µM (inactive) throughout. Further, the GI50 in the experiment with U-251 was > 100 µM (inactive); in the experiment on Malme-3M, > 100 µM (inactive); in the experiment on HCT-15, more than 100 µM; in the experiment with MDA-MB-231, 34.8 µM (inactive); in the experiment with SR, > 100 µM (inactive); in the experiment on OVCAR-5 it was > 100 µM (inactive). The GI50 in the experiment on SK-MEL-5 is > 100 µM (inactive).
Regarding `Cc1ccc(OCC2OC(n3cnc4c(Br)nc(Br)nc43)CC2Oc2ccc(C)cc2)cc1` (stereo not given), the GI50 in the experiment on IGROV-1 is 5.04 µM (inactive); in the experiment on PC-3, 2.94 µM (inactive); in the experiment on UACC-257, 7.06 µM (inactive); with DU-145, 2.38 µM (inactive); with BT-549, 18.6 µM (inactive); with UACC-62 it was 7.35 µM (inactive). Further, the GI50 in the experiment with HCC 2998 is 2.6 µM (inactive); in the experiment with COLO 205 it was 4.06 µM (inactive); in the experiment on NCI-H226, 14.6 µM (inactive); with SNB-19, 7.31 µM (inactive); in the experiment on SN12C, 3.37 µM (inactive); in the experiment on MCF7, 4.32 µM (inactive). The GI50 was 2.24 µM (inactive) with U-251; 3.58 µM (inactive) in the experiment on Malme-3M; 2.34 µM with HCT-15; 2.12 µM (inactive) with MDA-MB-231; 1.96 µM (inactive) in the experiment on SR; 12.3 µM (inactive) with OVCAR-5. The GI50 in the experiment with SK-MEL-5 was 6.31 µM (inactive).
With `COc1ccc(-c2ncnc(-c3ccc(OC)c(OC)c3)n2)cc1OC`, the GI50 in the experiment on IGROV-1, with PC-3, in the experiment on UACC-257, with DU-145, in the experiment on BT-549 and with UACC-62 was > 100 µM (inactive) throughout. The GI50 with HCC 2998, in the experiment on COLO 205, with NCI-H226, in the experiment with SN12C, with MCF7 and in the experiment with U-251 was > 100 µM (inactive) throughout. Moreover, the GI50 in the experiment with Malme-3M was > 100 µM (inactive); with MDA-MB-231, > 100 µM (inactive); with SR, 45.2 µM (inactive); with OVCAR-5 it was > 100 µM (inactive); in the experiment on SK-MEL-5, > 100 µM (inactive).
On to `C=C(CCOC)CCC1CCCCC/C1=N\N(C)C` (stereo not given), for which the GI50 with IGROV-1, with PC-3, in the experiment on DU-145, in the experiment with BT-549, in the experiment with UACC-62 and in the experiment with HCC 2998 was > 100 µM (inactive) each time. The GI50 in the experiment on COLO 205, with NCI-H226, with SNB-19, in the experiment on NCI-H460, in the experiment on SN12C and with MCF7 was > 100 µM (inactive) each time. In addition, the GI50 in the experiment with U-251 was > 100 µM (inactive); with Malme-3M it was > 100 µM (inactive); in the experiment on HCT-15, more than 100 µM; in the experiment with MDA-MB-231 it was > 100 µM (inactive); with SR it was > 100 µM (inactive); in the experiment on OVCAR-5, > 100 µM (inactive). Besides, the GI50 with SK-MEL-5 is > 100 µM (inactive).
Take `CCN1CC2=C(OC(N)=C(C#N)C2c2ccc(Cl)cc2)/C(=C/c2ccc(Cl)cc2)C1` (stereo not given): the GI50 with IGROV-1 was 20.8 µM (inactive); with PC-3, 18.2 µM (inactive); with UACC-257 it was 28.1 µM (inactive); with DU-145, 42.4 µM (inactive); in the experiment with BT-549, 70.8 µM (inactive); with UACC-62 it was 26.9 µM (inactive). The GI50 in the experiment with HCC 2998 is 26.7 µM (inactive); with COLO 205 it was 52.4 µM (inactive); with NCI-H226, 31 µM (inactive); in the experiment with SNB-19, 15 µM (inactive); with NCI-H460, 14 µM (inactive); with MCF7, 30.5 µM (inactive). Moreover, the GI50 with U-251 is 16.4 µM (inactive); in the experiment with Malme-3M, 18.9 µM (inactive); with HCT-15 it was 45.8 µM; in the experiment with MDA-MB-231, 16.1 µM (inactive); in the experiment with SR, 31.9 µM (inactive); in the experiment on OVCAR-5 it was 20.1 µM (inactive). In addition, the GI50 in the experiment with SK-MEL-5 was 13.1 µM (inactive).
Turning to `COc1ccc(/C=C/C(=O)c2cc(CN(C)C)c(O)c(CN(C)C)c2)cc1`, the GI50 in the experiment with IGROV-1 is 37 µM (inactive); in the experiment on PC-3, 23.9 µM (inactive); in the experiment with UACC-257, 16.5 µM (inactive); in the experiment with DU-145 it was 34.2 µM (inactive); in the experiment on BT-549, 27.9 µM (inactive); in the experiment on HCC 2998, > 10 µM (inactive). The GI50 in the experiment with COLO 205 was 18.4 µM (inactive); in the experiment with NCI-H226, 40.1 µM (inactive); with SNB-19, 29.9 µM (inactive); with NCI-H460 it was 18.7 µM (inactive); in the experiment with SN12C it was 21.9 µM (inactive); in the experiment on MCF7 it was 36.6 µM (inactive). Also, the GI50 with U-251 was 48.1 µM (inactive); in the experiment on Malme-3M, 25.2 µM (inactive); in the experiment on HCT-15 it was 40 µM; in the experiment with MDA-MB-231 it was 23.2 µM (inactive); with SR, 31.9 µM (inactive); in the experiment with OVCAR-5, > 100 µM (inactive). The GI50 in the experiment with SK-MEL-5 is 16.2 µM (inactive).
